Where “and” joins values, the source holds several entries; their conditions need not be identical. Equal entries are not always repeated.
Experiment: Kinetics of dissolution of fenofibrate (UV 278 nm)
Type: physicochemical
Details: for kinetics of dissolution of fenofibrate: 5 mg/l, one value per dish, Dish 1 to 6 in order
Experimental: The system of measurements used for the galenical control of the solid dispersions was made of two members: an apparatus of dissolution DISSOLUTEST DT 6 from ERWEKA [Euraf 55 rue Deschanel 92400 Courbevoie (France)] and a peristaltic pump 505 SR WATSON-MARLOW from Prolabo. Each test of dissolution was performed in one liter of degassed distilled water at 37° C. and at a pH near neutral. A sample of 4 mg of estradiol (i.e. 25 mg co-precipitate) was introduced in each of the six reactors at time t=0 and the speed of stirring of the paddles was 100 rounds/min. The dosages by UV (absorption at 278 nm) were performed continuously and in a closed circuit of a multi-channel peristaltic pump, connecting the beakers of the Dissolutest to the dishes of the spectrophometer. The latter was linked to a recorder and to a printing machine to permit the measurement at steady intervals of every 3 minutes of the variations of the optical density, themselves being proportional to the variations of the concentration of the active ingredient in the dissolution medium.
This was identical to that used for the study of the kinetics of dissolution for the co-precipitates of estradiol.
Therefore, it had been decided to prepare a calibrating range at 5 mg/l as for progesterone and to determine the kinetics of dissolution while introducing an equivalent amount of co-precipitate.

CC(C)OC(=O)C(C)(C)Oc1ccc(C(=O)c2ccc(Cl)cc2)cc1 [Fenofibrate]
kinetics of dissolution of fenofibrate (0 min): 0 | kinetics of dissolution of fenofibrate (3 min): 95.26 and 98.94 and 93.68 and 94.21 and 93.15 | kinetics of dissolution of fenofibrate (6 min): 92.1 and 95.78 and 91.05 and 90.52 | kinetics of dissolution of fenofibrate (9 min): 87.89 and 91.05 and 86.31 and 85.78 | kinetics of dissolution of fenofibrate (12 min): 83.68 and 86.31 and 82.1 and 83.15 and 80.52 | kinetics of dissolution of fenofibrate (15 min): 80.52 and 83.15 and 78.42 and 80 and 76.84 | kinetics of dissolution of fenofibrate (18 min): 77.89 and 77.36 and 80 and 75.26 and 74.21 | kinetics of dissolution of fenofibrate (21 min): 74.73 and 76.84 and 71.57 and 73.68 and 71.05 | kinetics of dissolution of fenofibrate (24 min): 72.1 and 73.68 and 68.94 and 71.05 and 68.42 | kinetics of dissolution of fenofibrate (27 min): 70 and 71.57 and 66.84 and 68.94 and 66.31 | kinetics of dissolution of fenofibrate (30 min): 68.42 and 67.89 and 69.47 and 64.73 and 67.36 | recrystallization in the course of the dissolution test (in words): a recrystallization of fenofibrate had been observed

Source: patent US6027747A, “Process for the production of dry pharmaceutical forms and the thus obtained pharmaceutical compositions” (priority 1998, dated 2000)
